Values joined by “and” are separate entries in the source; they are usually repeats but may differ in a detail not shown here. Identical values can stand only once.
What was measured:
[1] = tested on: IOP in test eye of DB rabbits; experiment: Single treatment multiple day application study: IOP lowering after topical administration of one formulation (QD, 5 days); assay type: in vivo, pigmented (Dutch Belted; DB) rabbits; design: Test eye IOP: unit not given here; conditions: for Drop in IOP: test eye
Excerpt: The rabbits were split into three groups.
The IOP profile following multi-day (QD, 5 days) exposure to a single formulation, in pigmented DB rabbits, is presented in FIGS. 1-26.

[2] = tested on: IOP in test eye of DB rabbits; experiment: Combination dose multiple day application study: IOP lowering after topical co-administration of two formulations (second 15 minutes after first)
[3] = tested on: IOP; conditions: topical application; cited from earlier work
[4] = Average of days 1, 3, 5, 30 min
[5] = Average of days 1, 3, 5, 60 min
[6] = Average of days 1, 3, 5, 90 min
[7] = Average of days 1, 3, 5, 120 min
[8] = Average of days 1, 3, 5, 150 min
[9] = Average of days 1, 3, 5, 180 min
[10] = Average of days 1, 3, 5, 240 min
[11] = Average of days 1, 3, 5, 300 min
[12] = Average of days 1, 3, 5, 360 min
[13] = Average of days 1, 3, 5, 420 min
[14] = Average of days 1, 3, 5, 480 min
[15] = Average of days 1, 3, 5, 540 min
[16] = Average of days 1, 3, 5, 1440 min

Compound: CC(C)OC(=O)CCC/C=C\C[C@@H]1[C@@H](CC[C@@H](O)CCc2ccccc2)[C@H](O)C[C@@H]1O [Latanoprost]
- Test eye IOP ([1]; Average of days 1, 3, 5, 0 min): 24.6
- Test eye IOP [1, 4]: 20.1
- Test eye IOP [1, 5]: 19.6
- Test eye IOP [1, 6]: 19.5
- Test eye IOP [1, 7]: 19.7
- Test eye IOP [1, 8]: 19.6
- Test eye IOP [1, 9]: 20.0
- Test eye IOP [1, 10]: 19.5
- Test eye IOP [1, 11]: 19.7
- Test eye IOP [1, 12]: 19.9
- Test eye IOP [1, 13]: 21.0
- Test eye IOP [1, 14]: 23.9
- Test eye IOP [1, 15]: 24.8
- Test eye IOP [1, 16]: 24.4
- Drop in IOP ([1]; Average of days 1, 3, 5, 0 min): 0.0%
- Drop in IOP [1, 4]: −18.3%
- Drop in IOP [1, 5]: −20.3%
- Drop in IOP [1, 6]: −20.5%
- Drop in IOP [1, 7]: −19.8%
- Drop in IOP [1, 8]: −20.5%
- Drop in IOP [1, 9]: −18.7%
- Drop in IOP [1, 10]: −20.6%
- Drop in IOP [1, 11]: −21.7%
- Drop in IOP [1, 12]: −19.1%
- Drop in IOP [1, 13]: −14.5%
- Drop in IOP [1, 14]: −2.9%
- Drop in IOP [1, 15]: 0.7%
- Drop in IOP [1, 16]: −2.2%
- Test eye IOP ([1]; Day 1, 0 min): 25.2
- Test eye IOP ([1]; Day 1, 30 min): 20.0
- Test eye IOP ([1]; Day 1, 60 min): 19.6
- Test eye IOP ([1]; Day 1, 90 min): 19.2
- Test eye IOP ([1]; Day 1, 120 min): 19.8
- Test eye IOP ([1]; Day 1, 150 min): 19.4
- Test eye IOP ([1]; Day 1, 180 min): 20.2
- Test eye IOP ([1]; Day 1, 240 min): 19.7
- Test eye IOP ([1]; Day 1, 300 min): 19.7
- Test eye IOP ([1]; Day 1, 360 min): 19.7
- Test eye IOP ([1]; Day 1, 420 min): 20.9
- Test eye IOP ([1]; Day 1, 480 min): 23.8
- Test eye IOP ([1]; Day 1, 540 min): 25.2
- Test eye IOP ([1]; Day 1, 1440 min): 24.4
- Drop in IOP ([1]; Day 1, 0 min): 0.0%
- Drop in IOP ([1]; Day 1, 30 min): −20.5%
- Drop in IOP ([1]; Day 1, 60 min): −21.9%
- Drop in IOP ([1]; Day 1, 90 min): −23.7%
- Drop in IOP ([1]; Day 1, 120 min): −21.3%
- Drop in IOP ([1]; Day 1, 150 min): −22.9%
- Drop in IOP ([1]; Day 1, 180 min): −19.7%
- Drop in IOP ([1]; Day 1, 240 min): −21.8%
- Drop in IOP ([1]; Day 1, 300 min): −21.7%
- Drop in IOP ([1]; Day 1, 360 min): −21.7%
- Drop in IOP ([1]; Day 1, 420 min): −16.8%
- Drop in IOP ([1]; Day 1, 480 min): −5.4%
- Drop in IOP ([1]; Day 1, 540 min): 0.3%
- Drop in IOP ([1]; Day 1, 1440 min): −3.0%
- Test eye IOP ([1]; Day 3, 0 min): 24.6
- Test eye IOP ([1]; Day 3, 30 min): 19.8
- Test eye IOP ([1]; Day 3, 60 min): 19.5
- Test eye IOP ([1]; Day 3, 90 min): 19.8
- Test eye IOP ([1]; Day 3, 120 min): 19.6
- Test eye IOP ([1]; Day 3, 150 min): 19.6
- Test eye IOP ([1]; Day 3, 180 min): 20.0
- Test eye IOP ([1]; Day 3, 240 min): 19.6
- Test eye IOP ([1]; Day 3, 360 min): 19.6
- Test eye IOP ([1]; Day 3, 420 min): 21.0
- Test eye IOP ([1]; Day 3, 480 min): 23.7
- Test eye IOP ([1]; Day 3, 540 min): 24.5
- Test eye IOP ([1]; Day 3, 1440 min): 24.2
- Drop in IOP ([1]; Day 3, 0 min): 0.0%
- Drop in IOP ([1]; Day 3, 30 min): −19.4%
- Drop in IOP ([1]; Day 3, 60 min): −20.7%
- Drop in IOP ([1]; Day 3, 90 min): −19.6%
- Drop in IOP ([1]; Day 3, 120 min): −20.3%
- Drop in IOP ([1]; Day 3, 150 min): −20.3%
- Drop in IOP ([1]; Day 3, 180 min): −18.7%
- Drop in IOP ([1]; Day 3, 240 min): −20.5%
- Drop in IOP ([1]; Day 3, 360 min): −20.3%
- Drop in IOP ([1]; Day 3, 420 min): −14.7%
- Drop in IOP ([1]; Day 3, 480 min): −3.6%
- Drop in IOP ([1]; Day 3, 540 min): −0.4%
- Drop in IOP ([1]; Day 3, 1440 min): −3.6%
- Test eye IOP ([1]; Day 5, 0 min): 24.1
- Test eye IOP ([1]; Day 5, 30 min): 20.4
- Test eye IOP ([1]; Day 5, 60 min): 19.7
- Test eye IOP ([1]; Day 5, 90 min): 19.7
- Test eye IOP ([1]; Day 5, 120 min): 19.8
- Test eye IOP ([1]; Day 5, 150 min): 19.7
- Test eye IOP ([1]; Day 5, 180 min): 19.8
- Test eye IOP ([1]; Day 5, 240 min): 19.3
- Test eye IOP ([1]; Day 5, 360 min): 20.3
- Test eye IOP ([1]; Day 5, 420 min): 21.2
- Test eye IOP ([1]; Day 5, 480 min): 24.1
- Test eye IOP ([1]; Day 5, 540 min): 24.6
- Test eye IOP ([1]; Day 5, 1440 min): 24.7
- Drop in IOP ([1]; Day 5, 0 min): 0.0%
- Drop in IOP ([1]; Day 5, 30 min): −15.2%
- Drop in IOP ([1]; Day 5, 60 min): −18.2%
- Drop in IOP ([1]; Day 5, 90 min): −18.2%
- Drop in IOP ([1]; Day 5, 120 min): −17.8%
- Drop in IOP ([1]; Day 5, 150 min): −18.2%
- Drop in IOP ([1]; Day 5, 180 min): −17.5%
- Drop in IOP ([1]; Day 5, 240 min): −19.6%
- Drop in IOP ([1]; Day 5, 360 min): −15.4%
- Drop in IOP ([1]; Day 5, 420 min): −12.0%
- Drop in IOP ([1]; Day 5, 480 min): 0.3%
- Drop in IOP ([1]; Day 5, 540 min): 2.1%
- Drop in IOP ([1]; Day 5, 1440 min): 0.0%
- IOP returned to baseline (time) ([1]; single formulation): ≤ 480 min
- average max drop in IOP ([1]; single formulation, QD, 5 days): about 21.3+2.1%
- Max IOP drop (%) ([1]; single formulation, Day 1): −23.7%
- Max IOP drop (mmHg) ([1]; single formulation, Day 1): 6.0 mmHg and 6 mmHg
- Time of max IOP drop (%) ([1]; single formulation, Day 1): 90 min
- Time of max IOP drop (mmHg) ([1]; single formulation, Day 1): 90 min
- Max IOP drop (%) ([1]; single formulation, Day 3): −20.7%
- Max IOP drop (mmHg) ([1]; single formulation, Day 3): 5.1 mmHg
- Time of max IOP drop (%) ([1]; single formulation, Day 3): 60 min
- Time of max IOP drop (mmHg) ([1]; single formulation, Day 3): 60 min
- Max IOP drop (%) ([1]; single formulation, Day 5): −19.6%
- Max IOP drop (mmHg) ([1]; single formulation, Day 5): 4.7 mmHg
- Time of max IOP drop (%) ([1]; single formulation, Day 5): 240 min
- Time of max IOP drop (mmHg) ([1]; single formulation, Day 5): 240 min
- time to max drop in IOP ([1]; single formulation, day 1): 60 min
- time to max drop in IOP ([1]; single formulation, day 3): 90 min
- time to max drop in IOP ([1]; single formulation, day 5): 240 min
- maintained average drop in IOP ([1]; single formulation, from 30 to 420 mins): 19.4 ± 1.9%
- comparison of IOP lowering of combinations with single treatments [2]: decreased the efficacy of both THC-VHS-NEC and Rhopressa® when combined

Compound: CCCCCc1cc(O)c2c(c1)OC(C)(C)[C@@H]1CCC(C)=C[C@@H]21 [THC, Delta-9-tetrahydrocannabinol]
- effect on IOP [3]: no effect on IOP

— US20240238317A1, “METHODS FOR REDUCING INTRAOCULAR PRESSURE” (UNIVERSITY OF MISSISSIPPI, priority 2021, published 2024)
